Test results from patent US11180504B2 (ORCHID PHARMA LTD., priority 2016, dated 2021).
In brackets after ≈: the same amount, converted by molar mass.

Legend:
[1] = tested on: methicillin-sensitive Staphylococcus aureus; experiment: MIC by broth micro-dilution (CLSI), methicillin-sensitive S. aureus; format: cell-based; conditions: Staphylococcus aureus, ATCC 29213 / MSSA, MSSA S. aureus ATCC29213; read-out: MIC
[2] = tested on: carbapenem sensitive Escherichia coli; experiment: MIC by broth micro-dilution (CLSI), carbapenem sensitive E. coli; format: cell-based; conditions: Escherichia coli, ATCC25922, ESBL −ve E. coli ATCC25922; read-out: MIC
[3] = tested on: extended spectrum β lactamase (ESBL) SHV18 producing Klebsiella pneumoniae; experiment: MIC by broth micro-dilution (CLSI), ESBL SHV18 producing K. pneumoniae; format: cell-based; conditions: Klebsiella pneumoniae, ATCC700603, 22 h, ESBL +ve (SHV-18) K. pneumoniae ATCC700603; read-out: MIC
[4] = tested on: carbapenemase producing K. pneumoniae; experiment: MIC by broth micro-dilution (CLSI), carbapenemase producing K. pneumoniae; format: cell-based, Klebsiella pneumoniae; conditions: Klebsiella pneumoniae, ATCCBAA1705, KPC-2 K. pneumoniae ATCC BAA-1705; read-out: MIC
[5] = tested on: carbapenem sensitive Pseudomonas aeruginosa; experiment: MIC by broth micro-dilution (CLSI), carbapenem sensitive P. aeruginosa; format: cell-based; conditions: Pseudomonas aeruginosa, ATCC27853, Meropenem susceptible P. aeruginosa ATCC27853; read-out: MIC

| MIC [1] | MIC [2] | MIC [3] | MIC [4] | MIC [5] | Structure (SMILES) |
| --- | --- | --- | --- | --- | --- |
| 2 µg/mL (≈ 4.48 µM) | 0.5 µg/mL (≈ 1.12 µM) | 1 µg/mL (≈ 2.24 µM) | 4 µg/mL (≈ 8.96 µM) | 64 µg/mL (≈ 143 µM) | CNC(=O)[C@@H]1C[C@H](SC2=C(C(=O)O)N3C(=O)[C@H]([C@@H](C)NC(=O)C(F)F)[C@H]3[C@H]2C)CN1 [Example 101] |
| 2 µg/mL (≈ 3.97 µM) | 2 µg/mL (≈ 3.97 µM) | 8 µg/mL (≈ 15.9 µM) | 8 µg/mL (≈ 15.9 µM) | 64 µg/mL (≈ 127 µM) | C[C@@H](NC(=O)C(F)F)[C@H]1C(=O)N2C(C(=O)O)=C(S[C@@H]3CN[C@H](C(=O)NCCN(C)C)C3)[C@H](C)[C@H]12 [Example 102] |
| 0.5 µg/mL (≈ 0.997 µM) | 0.5 µg/mL (≈ 0.997 µM) | 4 µg/mL (≈ 7.98 µM) | 8 µg/mL (≈ 16 µM) | 8 µg/mL (≈ 16 µM) | C[C@@H](NC(=O)C(F)F)[C@H]1C(=O)N2C(C(=O)O)=C(S[C@@H]3CN[C@H](C(=O)N4CC[C@H](N)C4)C3)[C@H](C)[C@H]12 [Example 103] |
| 4 µg/mL (≈ 8.39 µM) | 0.5 µg/mL (≈ 1.05 µM) | 1 µg/mL (≈ 2.1 µM) | 4 µg/mL (≈ 8.39 µM) | 128 µg/mL (≈ 269 µM) | C[C@@H](NC(=O)C(F)F)[C@H]1C(=O)N2C(C(=O)O)=C(S[C@@H]3CN[C@H](C(=O)NCCO)C3)[C@H](C)[C@H]12 [Example 104] |
| 4 µg/mL (≈ 7.76 µM) | 1 µg/mL (≈ 1.94 µM) | 4 µg/mL (≈ 7.76 µM) | 4 µg/mL (≈ 7.76 µM) | 4 µg/mL (≈ 7.76 µM) | CN[C@H]1CCN(C(=O)[C@@H]2C[C@H](SC3=C(C(=O)O)N4C(=O)[C@H]([C@@H](C)NC(=O)C(F)F)[C@H]4[C@H]3C)CN2)C1 [Example 106] |
| 4 µg/mL (≈ 6.56 µM) | 1 µg/mL (≈ 1.64 µM) | 16 µg/mL (≈ 26.2 µM) | 16 µg/mL (≈ 26.2 µM) | > 128 µg/mL | C[C@@H](NC(=O)C(F)F)[C@H]1C(=O)N2C(C(=O)O)=C(S[C@@H]3CN[C@H](C(=O)NCCC(=O)NOCc4ccccc4)C3)[C@H](C)[C@H]12 [Example 111] |
| 8 µg/mL (≈ 15 µM) | 0.5 µg/mL (≈ 0.937 µM) | 2 µg/mL (≈ 3.75 µM) | 8 µg/mL (≈ 15 µM) | > 128 µg/mL | CONC(=O)CCNC(=O)[C@@H]1C[C@H](SC2=C(C(=O)O)N3C(=O)[C@H]([C@@H](C)NC(=O)C(F)F)[C@H]3[C@H]2C)CN1 [Example 115] |
| 8 µg/mL (≈ 14.6 µM) | 0.5 µg/mL (≈ 0.913 µM) | 2 µg/mL (≈ 3.65 µM) | 4 µg/mL (≈ 7.3 µM) | > 128 µg/mL | C[C@@H](NC(=O)C(F)F)[C@H]1C(=O)N2C(C(=O)O)=C(S[C@@H]3CN[C@H](C(=O)NCCC(=O)NCCO)C3)[C@H](C)[C@H]12 [Example 116] |
| 2 µg/mL (≈ 3.52 µM) | 0.5 µg/mL (≈ 0.879 µM) | 1 µg/mL (≈ 1.76 µM) | 8 µg/mL (≈ 14.1 µM) | 16 µg/mL (≈ 28.1 µM) | C[C@@H](NC(=O)C(F)F)[C@H]1C(=O)N2C(C(=O)O)=C(S[C@@H]3CN[C@H](C(=O)N4CC[C@H](NC(=O)CC#N)C4)C3)[C@H](C)[C@H]12 [Example 119] |

Further lines, the compound ahead of its results:

| Structure (SMILES) | MIC [1] | MIC [2] | MIC [3] | MIC [4] | MIC [5] |
| --- | --- | --- | --- | --- | --- |
| CNCC(=O)N[C@@H](C)[C@H]1C(=O)N2C(C(=O)O)=C(S[C@H]3CN[C@H](C(=O)N4CC[C@@H](N)C4)C3)[C@H](C)[C@H]12 [Example 95, (4R,5S,6R)-3-((3R,5S)-5-((R)-3-aminopyrrolidine-1-carbonyl)pyrrolidin-3-ylthio)-4-methyl-6-((S)-1-(2-(methylamino)acetamido)ethyl)-7-oxo-1-azabicyclo[3.2.0]hept-2-ene-2-carboxylic acid] | 32 µg/mL (≈ 64.7 µM) | 1 µg/mL (≈ 2.02 µM) | 2 µg/mL (≈ 4.04 µM) | 2 µg/mL (≈ 4.04 µM) | 2 µg/mL (≈ 4.04 µM) |
| C[C@@H](NC(=O)C(F)F)[C@H]1C(=O)N2C(C(=O)O)=C(SCc3cccnc3)[C@H](C)[C@H]12 [Example 96] | 1 µg/mL (≈ 2.43 µM) | 4 µg/mL (≈ 9.72 µM) | 64 µg/mL (≈ 156 µM) | 32 µg/mL (≈ 77.8 µM) | > 128 µg/mL |
| C[C@@H](NC(=O)C(F)F)[C@H]1C(=O)N2C(C(=O)O)=C(SCc3ccncc3)[C@H](C)[C@H]12 [Example 97] | 1 µg/mL (≈ 2.43 µM) | 8 µg/mL (≈ 19.4 µM) | 128 µg/mL (≈ 311 µM) | 64 µg/mL (≈ 156 µM) | > 128 µg/mL |
| CCOC(=O)CN[C@H](C)[C@H]1C(=O)N2C(C(=O)O)=C(S[C@@H]3CN[C@H](C(=O)N(C)C)C3)[C@H](C)[C@H]12 [Example 98] | 32 µg/mL (≈ 68.3 µM) | 8 µg/mL (≈ 17.1 µM) | 32 µg/mL (≈ 68.3 µM) | 32 µg/mL (≈ 68.3 µM) | > 128 µg/mL |
| C[C@@H](NCC(=O)O)[C@H]1C(=O)N2C(C(=O)O)=C(S[C@@H]3CN[C@H](C(=O)N(C)C)C3)[C@H](C)[C@H]12 [Example 99] | 128 µg/mL (≈ 291 µM) | 64 µg/mL (≈ 145 µM) | 16 µg/mL (≈ 36.3 µM) | 64 µg/mL (≈ 145 µM) | 16 µg/mL (≈ 36.3 µM) |
| C[C@@H](NC(=O)CN(C)C)[C@H]1C(=O)N2C(C(=O)O)=C(S[C@@H]3CN[C@H](C(=O)N(C)C)C3)[C@H](C)[C@H]12 [Example 100] | 16 µg/mL (≈ 34.2 µM) | 1 µg/mL (≈ 2.14 µM) | 8 µg/mL (≈ 17.1 µM) | 4 µg/mL (≈ 8.55 µM) | 32 µg/mL (≈ 68.4 µM) |
| C[C@@H](NC(=O)C(F)F)[C@H]1C(=O)N2C(C(=O)O)=C(S[C@@H]3CN[C@H](C(=O)N4CC[C@H](N(C)C)C4)C3)[C@H](C)[C@H]12 [Example 107] | 4 µg/mL (≈ 7.55 µM) | 1 µg/mL (≈ 1.89 µM) | 4 µg/mL (≈ 7.55 µM) | 4 µg/mL (≈ 7.55 µM) | 16 µg/mL (≈ 30.2 µM) |
| C[C@@H](NC(=O)C(F)F)[C@H]1C(=O)N2C(C(=O)O)=C(S[C@H]3C[C@@H](C(=O)N(C)C)N(C=N)C3)[C@H](C)[C@H]12 [Example 108] | 2 µg/mL (≈ 4.1 µM) | 1 µg/mL (≈ 2.05 µM) | 4 µg/mL (≈ 8.2 µM) | 16 µg/mL (≈ 32.8 µM) | 128 µg/mL (≈ 263 µM) |
| CCOC(=O)C(=O)N[C@H](C)[C@H]1C(=O)N2C(C(=O)O)=C(S[C@@H]3CN[C@H](C(=O)N4CC[C@H](N)C4)C3)[C@H](C)[C@H]12 [Example 109] | 8 µg/mL (≈ 15.3 µM) | 4 µg/mL (≈ 7.64 µM) | 4 µg/mL (≈ 7.64 µM) | 16 µg/mL (≈ 30.6 µM) | 4 µg/mL (≈ 7.64 µM) |
| C[C@@H](NC(=O)C(F)F)[C@H]1C(=O)N2C(C(=O)O)=C(S[C@@H]3CN[C@H](C(=O)N4CC[C@H](NS(C)(=O)=O)C4)C3)[C@H](C)[C@H]12 [Example 110] | 4 µg/mL (≈ 6.9 µM) | 0.5 µg/mL (≈ 0.863 µM) | 2 µg/mL (≈ 3.45 µM) | 4 µg/mL (≈ 6.9 µM) | 32 µg/mL (≈ 55.2 µM) |
| CNCC(=O)N[C@H](C)[C@H]1C(=O)N2C(C(=O)O)=C(S[C@@H]3CN[C@H](C(=O)N(C)C)C3)[C@H](C)[C@H]12 [Example 112] | 64 µg/mL (≈ 141 µM) | 2 µg/mL (≈ 4.41 µM) | 4 µg/mL (≈ 8.82 µM) | 4 µg/mL (≈ 8.82 µM) | 8 µg/mL (≈ 17.6 µM) |
| CC(C)C[C@@H](N)C(=O)N[C@H](C)[C@H]1C(=O)N2C(C(=O)O)=C(S[C@@H]3CN[C@H](C(=O)N(C)C)C3)[C@H](C)[C@H]12 [Example 113] | 16 µg/mL (≈ 32.3 µM) | 4 µg/mL (≈ 8.07 µM) | 32 µg/mL (≈ 64.6 µM) | 16 µg/mL (≈ 32.3 µM) | > 128 µg/mL |
| C[C@@H](NC(=O)C(F)F)[C@H]1C(=O)N2C(C(=O)O)=C(S[C@@H]3CN[C@H](C(=O)N4CC[C@H](NS(=O)(=O)N(C)C)C4)C3)[C@H](C)[C@H]12 [Example 117] | 2 µg/mL (≈ 3.29 µM) | 0.5 µg/mL (≈ 0.821 µM) | 2 µg/mL (≈ 3.29 µM) | 4 µg/mL (≈ 6.57 µM) | > 128 µg/mL |
| C[C@@H](NC(=O)C(F)F)[C@H]1C(=O)N2C(C(=O)O)=C(S[C@@H]3CN[C@H](C(=O)N4CC[C@H](NC(=O)N(C)C)C4)C3)[C@H](C)[C@H]12 [Example 118] | 4 µg/mL (≈ 6.99 µM) | 0.5 µg/mL (≈ 0.873 µM) | 2 µg/mL (≈ 3.49 µM) | 8 µg/mL (≈ 14 µM) | 64 µg/mL (≈ 112 µM) |
| C[C@@H](NC(=O)C(F)F)[C@H]1C(=O)N2C(C(=O)O)=C(S[C@@H]3CN[C@H](C(=O)N4CCNCC4)C3)[C@H](C)[C@H]12 [Example 120] | 2 µg/mL (≈ 3.99 µM) | 0.5 µg/mL (≈ 0.997 µM) | 4 µg/mL (≈ 7.98 µM) | 4 µg/mL (≈ 7.98 µM) | 4 µg/mL (≈ 7.98 µM) |
